Experimental data from BindingDB's records for doi:10.1016/j.bmcl.2011.11.077 (The Broad Institute Probe Development Center, 2011).

Tests used:
[1] = Activation of GFP-tagged HIF1alpha expressed in human U2OS cells assessed as HIF1alpha nuclear translocation by high content imaging assay
[2] = biological target: T1, Hypoxia-inducible factor 1-alpha (Homo sapiens, UniProt Q16665); assay: Activation of human HIF1alpha expressed in DFX-induced human U2OS cells incubated for 30 mins prior to DFX-induction measured after overnight incubation by luciferase reporter gene assay
[3] = Activation of human HIF1alpha expressed in human U2OS cells assessed as increase in VEGF expression by RT-PCR analysis
[4] = biological target: T1, Hypoxia-inducible factor 1-alpha; assay: Activation of human HIF1alpha expressed in DFX-induced human U2OS cells incubated for 30 mins prior to DFX-induction measured after overnight incubation by luciferase reporter gene assay in presence of 50 uM iron
[5] = biological target: T1, Hypoxia-inducible factor 1-alpha; assay: Activation of human HIF1alpha expressed in DFX-induced human U2OS cells incubated for 30 mins prior to DFX-induction measured after overnight incubation by luciferase reporter gene assay in presence of 50 uM zinc

T1 sequence (Q16665 whole entry): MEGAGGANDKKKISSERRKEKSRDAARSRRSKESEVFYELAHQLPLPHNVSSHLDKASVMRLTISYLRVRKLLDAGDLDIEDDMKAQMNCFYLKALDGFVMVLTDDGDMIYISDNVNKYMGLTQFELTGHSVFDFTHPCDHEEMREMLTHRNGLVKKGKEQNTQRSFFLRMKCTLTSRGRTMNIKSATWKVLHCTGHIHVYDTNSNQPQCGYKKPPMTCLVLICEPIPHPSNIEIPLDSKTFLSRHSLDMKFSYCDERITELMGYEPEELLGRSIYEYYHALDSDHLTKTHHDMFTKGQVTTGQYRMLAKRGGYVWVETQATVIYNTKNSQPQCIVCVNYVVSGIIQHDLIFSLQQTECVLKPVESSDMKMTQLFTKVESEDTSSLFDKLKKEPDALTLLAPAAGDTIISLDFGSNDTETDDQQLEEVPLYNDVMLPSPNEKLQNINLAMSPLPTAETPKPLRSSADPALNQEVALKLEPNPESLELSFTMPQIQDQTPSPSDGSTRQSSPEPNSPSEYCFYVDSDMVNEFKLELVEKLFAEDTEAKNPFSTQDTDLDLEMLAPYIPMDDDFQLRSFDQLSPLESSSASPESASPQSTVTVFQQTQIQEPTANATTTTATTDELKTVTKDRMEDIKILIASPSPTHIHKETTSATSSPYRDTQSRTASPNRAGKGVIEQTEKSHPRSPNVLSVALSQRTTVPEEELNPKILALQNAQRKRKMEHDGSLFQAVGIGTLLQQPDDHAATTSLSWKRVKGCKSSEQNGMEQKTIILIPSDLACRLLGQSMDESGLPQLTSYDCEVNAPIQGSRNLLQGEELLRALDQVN

| EC50 [1] | EC50 [2] | EC50 [3] | EC50 [4] | EC50 [5] | SMILES |
| --- | --- | --- | --- | --- | --- |
| 5.41 µM | 22.4 µM | 7.55 µM | – | – | Cc1cccc(Nc2nc(-c3ccccn3)nnc2-c2ccccc2)n1 |
| 4.46 µM | 7.64 µM | 3.26 µM | – | – | c1ccc(-c2nnc(-c3ccccn3)nc2Nc2cnc3ccccc3n2)cc1 |
| 9.54 µM | 6.67 µM | 3.08 µM | – | – | Cc1ccccc1CNc1nc(-c2ccccn2)nnc1-c1ccccc1 |
| 2.39 µM | 5.41 µM | 2.91 µM | – | – | Cc1cccc(CNc2nc(-c3ccccn3)nnc2-c2ccccc2)c1 |
| 1.19 µM | 4.58 µM | 2.6 µM | – | – | Cc1ccc(CNc2nc(-c3ccccn3)nnc2-c2ccccc2)cc1 |
| 9.82 µM | 3.63 µM | 8.72 µM | – | – | c1ccc(CCNc2nc(-c3ccccn3)nnc2-c2ccccc2)cc1 |
| 9.84 µM | 17.5 µM | 9.6 µM | – | – | c1ccc(-c2nnc(-c3ccccn3)nc2NCCc2ccccn2)cc1 |
| 2.3 µM | 2.96 µM | 1.85 µM | – | – | Cc1ccc(CNc2nc(-c3ccccn3)nnc2-c2ccccc2)cc1C |
| 1.49 µM | 2.33 µM | 2.77 µM | – | – | Clc1cccc(CNc2nc(-c3ccccn3)nnc2-c2ccccc2)c1 |
| 3.73 µM | 4.74 µM | 3.67 µM | – | – | COc1ccc(CNc2nc(-c3ccccn3)nnc2-c2ccccc2)cc1 |
| 6.27 µM | 4.15 µM | 3.92 µM | – | – | COc1cccc(CNc2nc(-c3ccccn3)nnc2-c2ccccc2)c1 |
| 0.6 µM | 1.71 µM | 1.12 µM | – | – | CC(C)(C)c1ccc(CNc2nc(-c3ccccn3)nnc2-c2ccccc2)cc1 |
| 5.02 µM | 26 µM | 4.35 µM | – | – | c1ccc(-c2nnc(-c3ccccn3)nc2NCc2cccnc2)cc1 |
| 7.62 µM | 27.8 µM | 6.45 µM | – | – | c1ccc(-c2nnc(-c3ccccn3)nc2NCc2ccccn2)cc1 |
| 0.5 µM | 2.49 µM | 2.57 µM | – | – | c1ccc(-c2cccc(CNc3nc(-c4ccccn4)nnc3-c3ccccc3)c2)cc1 |
| 1.4 µM | 1.12 µM | 1.63 µM | 15.6 µM | 5.01 µM | c1ccc(-c2ccc(CNc3nc(-c4ccccn4)nnc3-c3ccccc3)cc2)cc1 |
| 10.5 µM | 25 µM | 10.6 µM | – | – | OCCCNc1nc(-c2ccccn2)nnc1-c1ccccc1 |
| 4.62 µM | 7.13 µM | 6.15 µM | – | – | C=CCNc1nc(-c2ccccn2)nnc1-c1ccccc1 [6-phenyl-N-prop-2-enyl-3-(2-pyridinyl)-1,2,4-triazin-5-amine] |
| 4.8 µM | 7.74 µM | 4.48 µM | – | – | c1ccc(CNc2nc(-c3ccccn3)nnc2-c2ccccc2)cc1 [GNF-Pf-100] |

Continued, compound first:

| SMILES | EC50 [1] | EC50 [2] | EC50 [3] | EC50 [4] | EC50 [5] |
| --- | --- | --- | --- | --- | --- |
| C[C@H](Nc1nc(-c2ccccn2)nnc1-c1ccccc1)C1CCCCC1 | 2.06 µM | 4.17 µM | 2.55 µM | – | – |
| C[C@@H](Nc1nc(-c2ccccn2)nnc1-c1ccccc1)C1CCCCC1 | 1.2 µM | 6.73 µM | 1.88 µM | – | – |
| c1ccc(-c2nnc(-c3ccccn3)nc2NCC2CCOCC2)cc1 | 7.67 µM | 29.5 µM | 8.38 µM | – | – |
| O=C(NCCCCO)c1cc(-c2ccccc2)on1 | 3.04 µM | 22 µM | 7.57 µM | – | – |
| O=C(NCC1CC1)c1cc(-c2ccccc2)on1 | 16.6 µM | 24.9 µM | 21.5 µM | – | – |
| c1ccc(-c2nnc(-c3ccccn3)nc2NCC2CC2)cc1 | 4.27 µM | 12.7 µM | 6.21 µM | – | – |
| c1ccc(-c2nnc(-c3ccccn3)nc2NCC2CCCCC2)cc1 | 2.46 µM | 4.74 µM | 3.45 µM | – | – |
| CC(C)(C)CCNc1nc(-c2ccccn2)nnc1-c1ccccc1 | 3.82 µM | 2.97 µM | 2.48 µM | – | – |
| c1ccc(-c2nnc(-c3ccccn3)nc2NCCN2CCOCC2)cc1 | 9.08 µM | 20.8 µM | 10 µM | – | – |
| c1ccc(-c2nnc(-c3ccccn3)nc2NCCCN2CCOCC2)cc1 | 6.27 µM | 14.2 µM | 8.12 µM | – | – |
| OCC1CCN(c2nc(-c3ccccn3)nnc2-c2ccccc2)CC1 | 11.6 µM | 22.9 µM | 12.1 µM | – | – |
| CN1CCN(c2nc(-c3ccccn3)nnc2-c2ccccc2)CC1 | 10.2 µM | 21.9 µM | 8.69 µM | – | – |
| O=C(NCCCN1CCOCC1)c1cc(-c2ccccc2)on1 | 20 µM | 23.9 µM | 28 µM | – | – |
| CCCCNC(=O)c1cc(-c2ccc(F)cc2)on1 | – | 8.85 µM | – | – | – |
| CN(C)c1nc(-c2ccccn2)nnc1-c1ccccc1 [MLS000541553] | 9.82 µM | 7.46 µM | 9.06 µM | – | – |
| O=C(NCCCn1ccnc1)c1cc(-c2ccccc2)on1 [MLS000708948] | 7.72 µM | 8.67 µM | 15.8 µM | – | – |
| CC(=O)N(O)CCCCCNC(=O)CCC(=O)N(O)CCCCCNC(=O)CCC(=O)N(O)CCCCCN [N-[5-[[4-[5-[acetyl(hydroxy)amino]pentylamino]-4-oxobutanoyl]-hydroxyamino]pentyl]-N''-(5-aminopentyl)-N''-hydroxybutanediamide;methanesulfonic acid] | – | 17.8 µM | – | – | – |
